Measurements from the Kinase Knowledgebase extract (Sharma et al. 2016).

Legend:
[1] = molecular target: MAPK14 (human) (UniProt Q16539); settings: Monocyte
[2] = molecular target: MAPK14 (UniProt Q16539); assay: P38-alpha Kinase Inhibition
[3] = test system: MAPK14 (Balb/c mice); assay: TNF-alpha Inhibition (Balb/c Mice)

Chain of MAPK14 (human) (Q16539 whole entry, looked up): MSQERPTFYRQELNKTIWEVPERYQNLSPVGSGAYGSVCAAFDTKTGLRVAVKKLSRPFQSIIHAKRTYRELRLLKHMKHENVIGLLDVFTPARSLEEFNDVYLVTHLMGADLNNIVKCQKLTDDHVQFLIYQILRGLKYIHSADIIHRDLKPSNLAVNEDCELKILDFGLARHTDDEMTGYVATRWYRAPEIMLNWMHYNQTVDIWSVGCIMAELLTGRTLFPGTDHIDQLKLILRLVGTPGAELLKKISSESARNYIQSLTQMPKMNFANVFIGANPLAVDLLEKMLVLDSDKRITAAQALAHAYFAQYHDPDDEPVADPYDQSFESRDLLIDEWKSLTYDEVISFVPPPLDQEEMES
Chain of MAPK14 (Q16539 whole entry, looked up): as above

Row | EC50 [1] | IC50 [2] | Compound | ED50 [3]
1 | 117 nM |  | C=C1COC(c2nc(-c3ccncc3)c(-c3ccc(F)cc3)[nH]2)OC1 | 
2 | 145 nM |  | Fc1ccc(-c2[nH]c([C@H]3OC[C@@H](Cc4ccccc4)CO3)nc2-c2ccncc2)cc1 | 
3 | 200 nM |  | OC[C@H]1CO[C@@H](c2nc(-c3ccncc3)c(-c3ccc(F)cc3)[nH]2)OC1 | 
4 | 191 nM |  | Fc1ccc(-c2[nH]c([C@H]3OC[C@H](Cc4ccccc4)CO3)nc2-c2ccncc2)cc1 | 

The next lines start with the compound.

Row | Compound | EC50 [1] | IC50 [2] | ED50 [3]
5 | C[C@]1(CN)CO[C@H](c2nc(-c3ccncc3)c(-c3ccc(F)cc3)[nH]2)OC1 | 38 nM |  | 
6 | C[C@]1(N)CO[C@@H](c2nc(-c3ccncc3)c(-c3ccc(F)cc3)[nH]2)OC1 | 55 nM |  | 
7 | C[C@]1(N)CO[C@H](c2nc(-c3ccncc3)c(-c3ccc(F)cc3)[nH]2)OC1 | 180 nM |  | 
8 | C[C@]1(CN)CO[C@@H](c2nc(-c3ccncc3)c(-c3ccc(F)cc3)[nH]2)OC1 | 33 nM |  | 
9 | C[C@]1(C(=O)N2CCOCC2)CO[C@H](c2nc(-c3ccncc3)c(-c3ccc(F)cc3)[nH]2)OC1 | 110 nM | 50 nM | 6 mg/kg
10 | CC(C)C1O[C@H](c2nc(-c3ccncc3)c(-c3ccc(F)cc3)[nH]2)OCC1(C)C (stereo partly specified) | 115 nM |  | 
11 | C[C@]1(CNC(=O)c2ccccc2)CO[C@H](c2nc(-c3ccncc3)c(-c3ccc(F)cc3)[nH]2)OC1 | 84 nM |  | 
12 | C[C@]1(NC(=O)c2ccccc2)CO[C@H](c2nc(-c3ccncc3)c(-c3ccc(F)cc3)[nH]2)OC1 | 110 nM | 44 nM | 11 mg/kg
